Measurements as given in the kinase profiling compilation of Christmann-Franck et al. (2016).

Tests used:
Test in all cases: KINOMEscan competition binding
Settings in all cases: compound 1.0 µM
[1] = test system: ABL1 (human), P00519 [M351T]
[2] = target: ACVR2B (human) (UniProt Q13705)
[3] = target: ADCK4 (human) (UniProt Q96D53)
[4] = target: CAMK1D (human) (UniProt Q8IU85)
[5] = target: CLK4 (human) (UniProt Q9HAZ1)
[6] = target: CSK (human) (UniProt P41240)
[7] = target: DAPK2 (human) (UniProt Q9UIK4)
[8] = target: DAPK3 (human) (UniProt O43293)
[9] = target: DDR1 (human) (UniProt Q08345)
[10] = target: DYRK1A (human) (UniProt Q13627)
[11] = target: EPHB3 (human) (UniProt P54753)
[12] = target: FGFR1 (human) (UniProt P11362)
[13] = target: GAK (human) (UniProt O14976)
GAK (human), sequence (O14976 whole entry, looked up): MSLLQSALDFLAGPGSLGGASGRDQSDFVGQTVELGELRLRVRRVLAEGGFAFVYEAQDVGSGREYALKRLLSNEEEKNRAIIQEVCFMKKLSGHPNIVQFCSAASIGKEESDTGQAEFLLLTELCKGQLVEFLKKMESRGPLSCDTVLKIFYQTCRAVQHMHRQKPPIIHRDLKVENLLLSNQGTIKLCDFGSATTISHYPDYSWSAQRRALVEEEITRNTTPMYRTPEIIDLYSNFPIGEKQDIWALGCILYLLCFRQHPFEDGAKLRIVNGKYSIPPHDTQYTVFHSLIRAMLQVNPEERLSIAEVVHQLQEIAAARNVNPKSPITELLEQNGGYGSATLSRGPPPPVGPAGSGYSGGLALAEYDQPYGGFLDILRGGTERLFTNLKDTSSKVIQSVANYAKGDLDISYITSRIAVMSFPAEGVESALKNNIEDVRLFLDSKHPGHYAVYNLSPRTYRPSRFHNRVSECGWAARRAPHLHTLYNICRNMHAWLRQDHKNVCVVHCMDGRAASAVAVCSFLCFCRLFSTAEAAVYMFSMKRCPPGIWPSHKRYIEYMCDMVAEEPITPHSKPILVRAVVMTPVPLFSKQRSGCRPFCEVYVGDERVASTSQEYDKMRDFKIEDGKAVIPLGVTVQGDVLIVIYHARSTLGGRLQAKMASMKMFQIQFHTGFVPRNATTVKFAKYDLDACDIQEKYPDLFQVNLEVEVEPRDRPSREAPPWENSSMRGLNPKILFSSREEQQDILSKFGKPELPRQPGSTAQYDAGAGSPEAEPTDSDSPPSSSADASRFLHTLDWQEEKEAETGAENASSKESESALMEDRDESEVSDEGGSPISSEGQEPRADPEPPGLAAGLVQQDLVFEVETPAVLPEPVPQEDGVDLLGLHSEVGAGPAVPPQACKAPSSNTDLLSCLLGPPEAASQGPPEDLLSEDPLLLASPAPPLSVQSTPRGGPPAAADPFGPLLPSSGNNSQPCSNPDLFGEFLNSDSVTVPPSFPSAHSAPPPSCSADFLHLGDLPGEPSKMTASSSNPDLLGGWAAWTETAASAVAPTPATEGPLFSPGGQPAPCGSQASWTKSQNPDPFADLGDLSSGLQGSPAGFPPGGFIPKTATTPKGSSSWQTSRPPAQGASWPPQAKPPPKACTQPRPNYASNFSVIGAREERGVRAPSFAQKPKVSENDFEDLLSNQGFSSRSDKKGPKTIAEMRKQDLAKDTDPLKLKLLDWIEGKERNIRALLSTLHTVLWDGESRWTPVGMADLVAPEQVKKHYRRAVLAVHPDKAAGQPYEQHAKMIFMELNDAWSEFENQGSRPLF

[14] = target: GSK3B (human) (UniProt P49841)
[15] = target: IRAK1 (human) (UniProt P51617)
[16] = target: LCK (human) (UniProt P06239)
[17] = target: MAP2K4 (human) (UniProt P45985)
[18] = target: MAP3K11 (human) (UniProt Q16584)
[19] = target: MAP3K2 (human) (UniProt Q9Y2U5)
MAP3K2 (human), sequence (Q9Y2U5 whole entry, looked up): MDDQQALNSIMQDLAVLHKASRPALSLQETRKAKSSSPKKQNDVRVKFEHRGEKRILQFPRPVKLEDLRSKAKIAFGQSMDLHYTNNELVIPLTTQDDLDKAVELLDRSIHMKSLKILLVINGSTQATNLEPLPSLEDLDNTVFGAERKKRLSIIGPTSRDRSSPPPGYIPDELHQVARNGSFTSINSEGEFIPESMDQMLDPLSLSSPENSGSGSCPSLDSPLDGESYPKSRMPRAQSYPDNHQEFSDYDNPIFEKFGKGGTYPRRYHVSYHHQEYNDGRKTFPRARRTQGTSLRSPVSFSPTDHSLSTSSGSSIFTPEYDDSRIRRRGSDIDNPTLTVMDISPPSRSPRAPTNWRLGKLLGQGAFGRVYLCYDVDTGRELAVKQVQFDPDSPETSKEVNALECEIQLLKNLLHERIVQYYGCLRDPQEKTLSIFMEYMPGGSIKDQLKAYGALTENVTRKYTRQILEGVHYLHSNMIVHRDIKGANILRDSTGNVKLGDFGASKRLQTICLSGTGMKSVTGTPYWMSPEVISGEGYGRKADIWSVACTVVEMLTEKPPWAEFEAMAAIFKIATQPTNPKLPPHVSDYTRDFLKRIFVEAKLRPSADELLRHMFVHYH

[20] = target: MAP4K4 (human) (UniProt O95819)
[21] = target: MAPK15 (human) (UniProt Q8TD08)
[22] = target: MKNK1 (human) (UniProt Q9BUB5)
[23] = target: MKNK2 (human) (UniProt Q9HBH9)
[24] = target: MYLK3 (human) (UniProt Q32MK0)
[25] = target: MYO3B (human) (UniProt Q8WXR4)
[26] = target: NEK7 (human) (UniProt Q8TDX7)
[27] = target: PI4KB (human) (UniProt Q9UBF8)
[28] = target: PIK3C2B (human) (UniProt O00750)
[29] = test system: PIK3CA (human), P42336 [Q546K]
[30] = target: PIM3 (human) (UniProt Q86V86)
[31] = target: PRPF4B (human) (UniProt Q13523)
PRPF4B (human), sequence (Q13523 whole entry, looked up): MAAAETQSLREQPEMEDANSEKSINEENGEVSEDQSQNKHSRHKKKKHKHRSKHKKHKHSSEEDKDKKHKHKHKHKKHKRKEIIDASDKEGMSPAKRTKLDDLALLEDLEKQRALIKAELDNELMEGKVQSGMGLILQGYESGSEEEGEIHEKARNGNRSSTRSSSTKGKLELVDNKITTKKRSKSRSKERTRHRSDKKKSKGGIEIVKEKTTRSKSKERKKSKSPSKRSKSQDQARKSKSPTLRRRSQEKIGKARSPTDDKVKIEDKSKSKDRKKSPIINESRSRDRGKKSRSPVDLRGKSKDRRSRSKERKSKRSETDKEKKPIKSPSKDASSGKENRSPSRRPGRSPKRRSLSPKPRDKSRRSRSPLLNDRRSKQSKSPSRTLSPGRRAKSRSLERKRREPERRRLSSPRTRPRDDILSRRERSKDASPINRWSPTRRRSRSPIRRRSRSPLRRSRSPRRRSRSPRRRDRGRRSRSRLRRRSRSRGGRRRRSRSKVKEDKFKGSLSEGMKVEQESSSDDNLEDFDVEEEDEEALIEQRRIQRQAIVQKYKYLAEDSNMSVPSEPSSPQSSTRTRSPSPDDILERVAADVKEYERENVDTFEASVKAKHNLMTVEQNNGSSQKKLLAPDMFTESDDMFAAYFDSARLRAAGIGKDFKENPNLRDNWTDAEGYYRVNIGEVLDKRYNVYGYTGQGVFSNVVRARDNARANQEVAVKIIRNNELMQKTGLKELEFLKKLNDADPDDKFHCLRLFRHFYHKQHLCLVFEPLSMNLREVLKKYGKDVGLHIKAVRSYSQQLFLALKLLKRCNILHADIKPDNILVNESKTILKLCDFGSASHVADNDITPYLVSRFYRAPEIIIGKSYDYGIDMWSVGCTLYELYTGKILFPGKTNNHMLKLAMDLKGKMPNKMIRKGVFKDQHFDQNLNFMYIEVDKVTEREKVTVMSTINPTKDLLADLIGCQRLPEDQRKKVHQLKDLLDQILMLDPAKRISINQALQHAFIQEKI

[32] = target: PTK2B (human) (UniProt Q14289)
[33] = test system: RET (human), P07949 [V804M]
RET (human), P07949 [V804M], sequence (P07949 whole entry V804M, looked up): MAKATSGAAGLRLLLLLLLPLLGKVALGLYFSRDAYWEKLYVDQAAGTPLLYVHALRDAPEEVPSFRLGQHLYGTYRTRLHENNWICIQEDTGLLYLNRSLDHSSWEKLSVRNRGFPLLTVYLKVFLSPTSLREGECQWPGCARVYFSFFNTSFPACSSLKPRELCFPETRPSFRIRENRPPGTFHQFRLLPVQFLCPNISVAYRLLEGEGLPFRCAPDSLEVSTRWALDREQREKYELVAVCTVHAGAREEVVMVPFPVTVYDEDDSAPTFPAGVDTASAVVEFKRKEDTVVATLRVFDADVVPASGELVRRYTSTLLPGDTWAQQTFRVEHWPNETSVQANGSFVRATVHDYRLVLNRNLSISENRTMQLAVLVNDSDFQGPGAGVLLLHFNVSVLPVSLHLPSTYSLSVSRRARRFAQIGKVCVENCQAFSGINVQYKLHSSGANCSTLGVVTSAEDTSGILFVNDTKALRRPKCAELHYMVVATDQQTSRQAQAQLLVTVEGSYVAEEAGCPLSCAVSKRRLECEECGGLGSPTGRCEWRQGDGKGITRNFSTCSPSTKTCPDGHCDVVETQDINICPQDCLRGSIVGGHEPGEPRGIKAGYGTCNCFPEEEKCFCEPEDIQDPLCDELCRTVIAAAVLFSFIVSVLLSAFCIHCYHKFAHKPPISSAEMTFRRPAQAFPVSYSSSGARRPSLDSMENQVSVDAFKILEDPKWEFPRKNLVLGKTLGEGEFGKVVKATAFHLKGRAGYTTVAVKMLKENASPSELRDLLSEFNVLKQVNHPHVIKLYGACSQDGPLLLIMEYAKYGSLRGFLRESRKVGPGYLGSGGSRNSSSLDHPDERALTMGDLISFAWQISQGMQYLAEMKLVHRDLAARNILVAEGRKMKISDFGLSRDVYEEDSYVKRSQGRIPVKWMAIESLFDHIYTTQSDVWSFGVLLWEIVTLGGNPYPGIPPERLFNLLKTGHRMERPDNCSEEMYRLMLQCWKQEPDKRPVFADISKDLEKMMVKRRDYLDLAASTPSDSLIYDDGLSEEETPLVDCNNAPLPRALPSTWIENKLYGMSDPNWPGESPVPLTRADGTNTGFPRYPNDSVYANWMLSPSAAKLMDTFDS

[34] = target: RIPK4 (human) (UniProt P57078)
RIPK4 (human), sequence (P57078 whole entry, looked up): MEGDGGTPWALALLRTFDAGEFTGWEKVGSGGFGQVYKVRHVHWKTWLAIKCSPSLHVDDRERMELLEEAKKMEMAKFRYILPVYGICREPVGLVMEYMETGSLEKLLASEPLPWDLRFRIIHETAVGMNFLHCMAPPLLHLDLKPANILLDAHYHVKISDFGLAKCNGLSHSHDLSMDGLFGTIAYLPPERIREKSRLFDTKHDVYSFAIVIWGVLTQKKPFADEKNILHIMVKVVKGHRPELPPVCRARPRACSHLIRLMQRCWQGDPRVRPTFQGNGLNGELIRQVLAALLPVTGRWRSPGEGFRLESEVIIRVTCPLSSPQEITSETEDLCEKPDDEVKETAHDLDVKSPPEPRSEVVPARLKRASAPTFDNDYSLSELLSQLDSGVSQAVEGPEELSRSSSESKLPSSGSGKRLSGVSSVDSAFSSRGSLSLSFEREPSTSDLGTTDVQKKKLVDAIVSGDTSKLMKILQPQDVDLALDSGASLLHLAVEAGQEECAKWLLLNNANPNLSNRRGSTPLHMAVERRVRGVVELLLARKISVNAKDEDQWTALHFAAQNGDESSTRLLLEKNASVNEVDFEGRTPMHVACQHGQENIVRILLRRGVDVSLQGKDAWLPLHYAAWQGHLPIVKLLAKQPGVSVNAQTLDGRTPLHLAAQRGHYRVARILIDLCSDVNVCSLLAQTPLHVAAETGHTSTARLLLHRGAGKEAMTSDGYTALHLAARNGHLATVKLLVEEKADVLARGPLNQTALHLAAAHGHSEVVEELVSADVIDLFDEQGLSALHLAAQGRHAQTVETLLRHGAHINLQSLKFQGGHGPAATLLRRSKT

[35] = target: ROCK1 (human) (UniProt Q13464)
[36] = target: SRPK1 (human) (UniProt Q96SB4)
[37] = target: STK16 (human) (UniProt O75716)
[38] = target: STK33 (human) (UniProt Q9BYT3)
[39] = target: TNK2 (human) (UniProt Q07912)

CNc1nc(Nc2ccc(C(=O)N3CCOCC3)cc2OC)ncc1Cl
kinase still bound, per cent of control [1]: 97% | kinase still bound, per cent of control [2]: 65% | kinase still bound, per cent of control [3]: 100% | kinase still bound, per cent of control [4]: 100% | kinase still bound, per cent of control [5]: 100% | kinase still bound, per cent of control [6]: 100% | kinase still bound, per cent of control [7]: 66% | kinase still bound, per cent of control [8]: 63% | kinase still bound, per cent of control [9]: 100% | kinase still bound, per cent of control [10]: 100% | kinase still bound, per cent of control [11]: 100% | kinase still bound, per cent of control [12]: 55% | kinase still bound, per cent of control [13]: 25% | kinase still bound, per cent of control [14]: 97% | kinase still bound, per cent of control [15]: 100% | kinase still bound, per cent of control [16]: 100% | kinase still bound, per cent of control [17]: 78% | kinase still bound, per cent of control [18]: 100% | kinase still bound, per cent of control [19]: 100% | kinase still bound, per cent of control [20]: 77% | kinase still bound, per cent of control [21]: 100% | kinase still bound, per cent of control [22]: 88% | kinase still bound, per cent of control [23]: 14% | kinase still bound, per cent of control [24]: 100% | kinase still bound, per cent of control [25]: 100% | kinase still bound, per cent of control [26]: 88% | kinase still bound, per cent of control [27]: 100% | kinase still bound, per cent of control [28]: 96% | kinase still bound, per cent of control [29]: 100% | kinase still bound, per cent of control [30]: 100% | kinase still bound, per cent of control [31]: 98% | kinase still bound, per cent of control [32]: 82% | kinase still bound, per cent of control [33]: 92% | kinase still bound, per cent of control [34]: 100% | kinase still bound, per cent of control [35]: 100% | kinase still bound, per cent of control [36]: 81% | kinase still bound, per cent of control [37]: 100% | kinase still bound, per cent of control [38]: 38% | kinase still bound, per cent of control [39]: 78%
